What was measured:
[1] = test system: human tumor cells including breast, colon, prostate, cervix, lung, and ovarian cancers; experiment: In vitro activity of BA against cancer cells; format: cell-based
[2] = test system: human OVCAR-3 (NIH-OVCAR-3) ovarian adenocarcinoma; experiment: OVCAR-3 ovarian carcinoma xenograft efficacy study; format: in vivo, SCID mice
Protocol: (§1) The human OVCAR-3 (NIH-OVCAR-3) ovarian adenocarcinoma utilized in the study is maintained in athymic nude mice by serial engraftment. The human SW620 colon adenocarcinoma utilized in the study is maintained in nude mice by serial engraftment.
Tumor weight may be estimated with the assumption that 1 mg is equivalent to 1 mm^3 of tumor volume. Tumor size, in mm^3, was calculated from: […]
Oral group receives BA p.o. (orally) twice daily from D1 p.m. until D68 a.m. (b.i.d. to end, i.e. twice daily dosing for the duration of the study). Alzet model osmotic pumps are implanted on Days 1, 15, and 29. The pumps are pre-warmed for 1 hour at 37° C., and then implanted subcutaneously (s.c.) in the left flanks of isofluoraneanesthetized mice. Each pump delivers a total dose of 25 mg/kg/week of BA over 14 days. BA is administrated intraperitoneally (i.p.) 15 mg/kg respectively twice weekly.
Each animal is euthanized when its neoplasm reached the predetermined endpoint size (1,000 mm^3).
where: T=median TTE for a treatment group, C=median TTE for control Group 1.

[3] = in vivo
Protocol: (§2) The protocol has been amended to evaluate BA in combination with chemotherapy in specific tumor types.
(§3) BA Dosing: • Twice weekly; i.v. infusion • Standard 3+3 design for BA dose escalation • Dose levels studied: 2.0, 2.8, 4.0, 5.6, 8.0, and up to 11.2 mg/kg
Safety, tolerability and MTD of each combination

advanced solid tumors = experiment: Phase 1b study of BA in combination with chemotherapy, clinical response via RECIST; format: in vivo, human
Protocol: as §2
BA plus cytotoxic chemotherapy (CTX)
as §3
Clinical response via RECIST every 2 cycles
Subjects— 18 years old with a refractory, advanced solid tumor, ECOG PS of <=2, and adequate hematological, renal, and hepatic function
No restriction on number of prior chemotherapeutic regimens

[4] = Preclinical studies of BA with topotecan
PARP = PARP activity in tissue samples from OVCAR-3 xenograft model; format: in vivo, SCID mice; conditions: after a single dose of BA; for effect on PARP activity in xenograft tissue samples: FIG. 2
Excerpt: as §1
Whole blood is collected into EDTA vacutainers and human PBMCs are obtained by BD Vacutainer™ CPT™ Cell Preparation kit according to the manufacturer's instructions (BD Vacutainer™, REF 362760). Tumor samples are collected in a sterile container and placed immediately on ice. Within 30 minutes, tumor samples are snap-frozen in liquid nitrogen and stored at −80° C. until homogenized for analysis. The specimen is defrosted on ice and the wet weight is documented. The tissue is homogenized using isotonic buffer [7 mmol/L HEPES, 26 mmol/L KCl, 0.1 mmol/L dextran, 0.4 mmol/L EGTA, 0.5 mmol/L MgCl2, 45 mmol/L sucrose (pH 7.8)]. The homogenate is kept on ice throughout the process, and homogenization is done in 10-second bursts to prevent undue warming of the sample. Unless assayed on the day of homogenization, samples are refrozen to −80° C. and stored at this temperature until analyzed.
Cell preparations are defrosted rapidly at room temperature and washed twice in ice-cold PBS. […] Maximally stimulated PARP activity is measured in replicate samples of 20,000 cells in a reaction mixture containing […] NAD+ and 10 mg/mL oligonucleotide in a reaction buffer of 100 mmol/L Tris-HCl, 120 mmol/L MgCl2 (pH 7.8) in a final volume of […] as described previously (24) at 26° C. in an oscillating water bath. […] Purified PAR standards are loaded onto each membrane ([…] monomer equivalent) to generate a standard curve and allow quantification. […] Chemiluminesence detected during a 5-minute exposure is measured using a Fuji LAS3000 UV Illuminator (Raytek, Sheffield, United Kingdom) and digitized using the imaging software (Fuji LAS Image version 1.1, Raytek). The acquired image is analyzed using Aida Image Analyzer (version 3.28.001), and results are expressed in LAU/mm^2. […]

Which “proliferation of human tumor cells” value ([1]; in vitro, breast, colon, prostate, cervix, lung, and ovarian cancers) does the source give for `NC(=O)c1ccc(I)c([N+](=O)[O-])c1` [BA, 4-iodo-3-nitrobenzamide] here?
The value was “inhibits the proliferation”.

What about the “activity against cancer cells in vitro” value ([1]; including drug resistant cell lines) of the same compound?
The value was “active against a broad range of cancer cells”.

What about the tumor growth ([2]; OVCAR-3 xenograft in SCID mice) of the same compound?
Its tumor growth is “significantly inhibits tumor growth”.

What about the “survival compared with the untreated control” value ([2]; different routes of administration, FIG. 3) of the same compound?
Its value is “improves survival”.

And the “potentiation of known toxicities or increased frequency of expected toxicities of cytotoxic regimens” value [3]?
The value was “no evidence”.

And the “subjects with stable disease for 2 cycles of treatment or more” value (advanced solid tumors; BA plus cytotoxic chemotherapy)?
Its value is “Approximately 80%”.

What about the “tumor response of a patient with advanced ovarian cancer” value (advanced solid tumors; after 4 cycles of BA in combination with topotecan, FIG. 4) of the same compound?
Its value is “partial response”.

What about the “subjects demonstrating some clinical benefit” value (advanced solid tumors; of 66 subjects, BA plus cytotoxic chemotherapy) of the same compound?
The value was 53 subjects.

What about the “liver lesion (target lesion) size after treatment” value (advanced solid tumors; one ovarian cancer patient, 4 cycles BA with topotecan, from 4.6 cm) of the same compound?
Its value is 1.5 cm.

And the “CA 27-29 biomarker after treatment” value (advanced solid tumors; one ovarian cancer patient, 4 cycles BA with topotecan, from >300)?
Its value is < 200.

And the “effect on antitumor activity of topotecan” value [4]?
Its value is “potentiates the antitumor activity of topotecan”.

And the “effect on PARP activity in xenograft tissue samples” value (PARP)?
Its value is “inhibitory effect”.

What about the “effect on PARP activity in xenograft tissue samples” value (PARP; listed as 4-iodo-3-nitrobenzamide) of the same compound?
Its value is “inhibition of PARP”.

What about the “duration of inhibitory effect on PARP activity” value (PARP; hours of observation) of the same compound?
The value was “at least 8 hours”.

— patent US20090123419A1, “TREATMENT OF UTERINE CANCER AND OVARIAN CANCER WITH A PARP INHIBITOR ALONE OR IN COMBINATION WITH ANTI-TUMOR AGENTS” (BiPar Sciences, priority 2007, published 2009)
